# Molecular target: T1, Peroxisome proliferator-activated receptor alpha (Homo sapiens, UniProt Q07869)
# T1 sequence (Q07869 whole entry): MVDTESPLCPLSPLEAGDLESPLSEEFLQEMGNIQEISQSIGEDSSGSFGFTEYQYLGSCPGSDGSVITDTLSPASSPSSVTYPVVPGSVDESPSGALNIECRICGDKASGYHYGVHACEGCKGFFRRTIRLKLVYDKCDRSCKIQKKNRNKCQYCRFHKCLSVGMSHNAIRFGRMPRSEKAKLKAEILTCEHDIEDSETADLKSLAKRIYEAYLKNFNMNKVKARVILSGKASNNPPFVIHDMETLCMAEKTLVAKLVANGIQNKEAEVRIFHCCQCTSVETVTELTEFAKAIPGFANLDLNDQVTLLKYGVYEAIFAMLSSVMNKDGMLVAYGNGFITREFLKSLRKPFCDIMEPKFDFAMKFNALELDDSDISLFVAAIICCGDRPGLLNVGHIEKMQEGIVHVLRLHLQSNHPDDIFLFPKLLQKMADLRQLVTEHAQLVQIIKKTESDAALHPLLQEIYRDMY
# Test: Agonist activity at PPARalpha ligand binding domain expressed in human HeLa cells co-transfected with Gal4-DBD assessed as transcriptional activation by Gal4 response element-driven luciferase reporter gene assay
# Assay type: cell-based
row,Compound,EC50 [µM]
1,CCCCCCC[C@H]1C(=O)C=C[C@@H]1OCCCCCC(=O)O,1
2,CCCCCCC[C@H]1C(=O)C=C(I)[C@@H]1OCCCCCC(=O)O (relative stereo),1
3,CCCCCCC#CC1=CC(=O)[C@H](CCCCCCC)[C@H]1OCCCCCC(=O)O (relative stereo),0.5
4,CCCCCCC#CC1=CC(=O)[C@H](CCCCCCC)[C@@H]1OCCCCCC(=O)O (relative stereo),0.5
5,CCCCCCC[C@H]1C(=O)C=C(I)[C@H]1OCCCCCC(=O)O (relative stereo),> 10

# Molecular target: T2, Peroxisome proliferator-activated receptor delta (Homo sapiens, UniProt Q03181)
# T2 sequence (Q03181 whole entry): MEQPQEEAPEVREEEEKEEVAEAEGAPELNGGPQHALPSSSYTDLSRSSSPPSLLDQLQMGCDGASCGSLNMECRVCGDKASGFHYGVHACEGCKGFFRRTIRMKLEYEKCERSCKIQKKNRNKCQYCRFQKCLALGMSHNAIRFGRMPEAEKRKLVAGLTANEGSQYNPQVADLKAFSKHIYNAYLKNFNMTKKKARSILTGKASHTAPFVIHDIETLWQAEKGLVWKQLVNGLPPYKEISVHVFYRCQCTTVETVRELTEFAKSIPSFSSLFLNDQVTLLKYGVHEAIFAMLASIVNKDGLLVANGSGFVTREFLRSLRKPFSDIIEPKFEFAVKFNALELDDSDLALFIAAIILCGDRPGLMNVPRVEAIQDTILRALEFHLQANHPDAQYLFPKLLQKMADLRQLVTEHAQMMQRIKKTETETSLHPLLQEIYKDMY
row,Compound,EC50 [µM]
1,CCCCCCC[C@H]1C(=O)C=C[C@@H]1OCCCCCC(=O)O,> 10
2,CCCCCCC[C@H]1C(=O)C=C(I)[C@@H]1OCCCCCC(=O)O (relative stereo),0.5
3,CCCCCCCN(CCc1ccc(SC(C)(C)C(=O)O)cc1)C(=O)Nc1ccc(F)cc1F [GSK-9578],1
4,CCCCCCC#CC1=CC(=O)[C@H](CCCCCCC)[C@H]1OCCCCCC(=O)O (relative stereo),2
5,CCCCCCC[C@H]1C(=O)C=C[C@H]1OCCCCCC(=O)O,2
6,CCCCCCC#CC1=CC(=O)[C@H](CCCCCCC)[C@@H]1OCCCCCC(=O)O (relative stereo),> 10
7,CCCCCCC[C@H]1C(=O)C=C(I)[C@H]1OCCCCCC(=O)O (relative stereo),> 10

# Molecular target: T3, Peroxisome proliferator-activated receptor gamma (Homo sapiens, UniProt P37231)
# T3 sequence (P37231 whole entry): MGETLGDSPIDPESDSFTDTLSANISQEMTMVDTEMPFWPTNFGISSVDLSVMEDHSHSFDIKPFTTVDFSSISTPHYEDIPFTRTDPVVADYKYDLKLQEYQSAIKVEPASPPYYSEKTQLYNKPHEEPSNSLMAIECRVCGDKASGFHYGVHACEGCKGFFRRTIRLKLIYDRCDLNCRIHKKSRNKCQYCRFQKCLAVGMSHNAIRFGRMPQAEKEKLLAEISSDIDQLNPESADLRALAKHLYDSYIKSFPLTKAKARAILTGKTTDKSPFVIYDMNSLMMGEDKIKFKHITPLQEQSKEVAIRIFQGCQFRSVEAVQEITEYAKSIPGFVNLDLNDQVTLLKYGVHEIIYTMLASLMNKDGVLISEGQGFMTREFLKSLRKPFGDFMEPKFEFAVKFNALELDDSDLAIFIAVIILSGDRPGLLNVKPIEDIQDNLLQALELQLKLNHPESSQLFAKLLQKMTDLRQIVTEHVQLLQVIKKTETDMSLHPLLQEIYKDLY
# Assay type: cell-based, HeLa
row,Compound,EC50 [µM]
1,CCCCCCC[C@H]1C(=O)C=C[C@@H]1OCCCCCC(=O)O,4
2,CCCCCCC[C@H]1C(=O)C=C(I)[C@@H]1OCCCCCC(=O)O (relative stereo),0.03
3,CCCCCCC#CC1=CC(=O)[C@H](CCCCCCC)[C@H]1OCCCCCC(=O)O (relative stereo),8
4,CCCCCCC[C@H]1C(=O)C=C[C@H]1OCCCCCC(=O)O,2
5,CCCCCCC#CC1=CC(=O)[C@H](CCCCCCC)[C@@H]1OCCCCCC(=O)O (relative stereo),4
6,CCCCCCC[C@H]1C(=O)C=C(I)[C@H]1OCCCCCC(=O)O (relative stereo),0.06

# Source: ChEMBL document CHEMBL1153952, “Selective, potent PPARgamma agonists with cyclopentenone core structure” (Bioorg Med Chem Lett, 2009)
